Drawing on US20250197436A1, “GALACTOOLIGOSACCHARIDE COMPOSITION” (priority 2022, published 2025), this text covers Peak areas for nine molecules.

The test system of the series is microbiota present in the faecal samples. Put plainly: Faecal fermentation, distribution of oligosaccharides (HPAEC-PAD peak areas). From the text:
HPAEC-PAD (high performance anion exchange chromatography) equipped with a PA-1 column was used for separation of mono- and oligosaccharides of the different samples. […] The samples as used for GPC were 100-fold diluted with DMSO before injection.
The distribution of oligosaccharides in the mixtures was also monitored over this time period using the method described above in relation to Table 2.

[1] abbreviates: Comp. Ex. 1 sample, 6 h, Donor A.
Where [2] appears, read: Comp. Ex. 1 sample, 6 h, Donor B.
The mark [3] stands for this setting: Comp. Ex. 1 sample, 6 h, Donor C.
Setting [4] is: Comp. Ex. 1 sample, 24 h, Donor A.
[5] abbreviates: Comp. Ex. 1 sample, 24 h, Donor B.
The mark [6] stands for this setting: Comp. Ex. 1 sample, 24 h, Donor C.
Setting [7] is: Comp. Ex. 1 sample, 48 h, Donor A.
[8] abbreviates: Comp. Ex. 1 sample, 48 h, Donor B.
Setting [9] is: Comp. Ex. 1 sample, 48 h, Donor C.
The mark [10] stands for this setting: Example 2 sample, 24 h, Donor A.
Setting [11] is: Example 2 sample, 24 h, Donor B.
[12] abbreviates: Example 2 sample, 24 h, Donor C.
[13] abbreviates: Example 2 sample, 48 h, Donor A.
Where [14] appears, read: Example 2 sample, 48 h, Donor B.
[15] abbreviates: Example 2 sample, 48 h, Donor C.

Molecules are shown by their SMILES.

For `OC[C@H]1O[C@@H](OC[C@H]2OC(O)[C@H](O)[C@@H](O)[C@@H]2O)[C@H](O)[C@@H](O)[C@H]1O` (some centres unmarked) [Allolactos, Allolactose], the Peak areas is on record as 16.2 (Comp. Ex. 1 sample, 0 h); 0.0 under setting [1]; 0.0 under setting [2]; 0.0 under setting [3]; 0.0 under setting [4]; 0.0 under setting [5]. In addition, the Peak areas by setting is: under setting [6], 0.0; under setting [7], 0.0; under setting [8], 0.0; under setting [9], 0.0; (Example 2 sample, 0 h) 24; (Example 2 sample, 6 h, Donor A) 1.3. Also, the Peak areas is on record as 0.0 (Example 2 sample, 6 h, Donor B); 0.0 (Example 2 sample, 6 h, Donor C); 0.0 under setting [10]; 0.0 under setting [11]; 0.0 under setting [12]; 0.0 under setting [13]. The Peak areas under setting [14] is given as 0.0 and the Peak areas under setting [15] amounted to 0.0.
As to `OC[C@H]1O[C@@H](O[C@@H]2[C@H](O)[C@@H](O)[C@H](O[C@H]3[C@H](O)[C@@H](O)C(O)O[C@@H]3CO)O[C@@H]2CO)[C@H](O)[C@@H](O)[C@H]1O` (stereo partly drawn) [Cpd. ID 11, D-Gal-(β1-4)-D-Gal-(β1-4)-D-Glu], the Peak areas runs as follows: (Comp. Ex. 1 sample, 0 h) 27.6; under setting [1], 1.9; under setting [2], 5.7; under setting [3], 1.6; under setting [4], 1.9; under setting [5], 2.0. Moreover, the Peak areas was 0.7 under setting [6]; 0.0 under setting [7]; 1.9 under setting [8]; 0.2 under setting [9]; 20.4 (Example 2 sample, 0 h); 3.2 (Example 2 sample, 6 h, Donor A). Moreover, the Peak areas was found to be 4.5 (Example 2 sample, 6 h, Donor B); 1.6 (Example 2 sample, 6 h, Donor C); 1.2 under setting [10]; 1.7 under setting [11]; 0.5 under setting [12]; 0.3 under setting [13]. For the same molecule, the Peak areas runs as follows: under setting [14], 2.6; under setting [15], 0.6.
Consider `OC[C@H]1O[C@@H](O[C@H]2[C@@H](O)[C@@H](CO)O[C@@H](O[C@H]3[C@H](O)[C@@H](O)C(O)O[C@@H]3CO)[C@@H]2O)[C@H](O)[C@@H](O)[C@H]1O` (stereo partly drawn) [Cpd. ID 12, D-Gal-(β1-3)-D-Gal-(β1-4)-D-Glu], for which the Peak areas (Comp. Ex. 1 sample, 0 h) is 1.4; the Peak areas under setting [1] is listed as 1.4; the Peak areas under setting [2] turned out to be 0.8; the Peak areas under setting [3] came to 0.9; the Peak areas under setting [4] is recorded as 0.4; the Peak areas under setting [5] turned out to be 0.4. Besides, the Peak areas under setting [6] worked out at 0.4; the Peak areas under setting [7] was 0.1; the Peak areas under setting [8] is 1.1; the Peak areas under setting [9] was 0.1; the Peak areas (Example 2 sample, 0 h) is listed as 28.9; the Peak areas (Example 2 sample, 6 h, Donor A) is on record as 1.1. Further, the Peak areas stood at 5.4 (Example 2 sample, 6 h, Donor B); 1.2 (Example 2 sample, 6 h, Donor C); 0.4 under setting [10]; 0.7 under setting [11]; 0.3 under setting [12]; 0.3 under setting [13]. For the same molecule, the Peak areas by setting is: under setting [14], 0.7; under setting [15], 0.2.
`OC[C@H]1O[C@@H](O[C@H]2[C@@H](O)[C@@H](CO)O[C@@H](O[C@H]3[C@H](O)[C@@H](CO)OC(O)[C@@H]3O)[C@@H]2O)[C@H](O)[C@@H](O)[C@H]1O` (stereo partly drawn) [Cpd. ID 29, D-Gal-(β1-3)-D-Gal-(β1-3)-D-Glu]: the Peak areas amounted to 4.7 (Comp. Ex. 1 sample, 0 h); 0.1 under setting [1]; 2.0 under setting [2]; 1.0 under setting [3]; 0.2 under setting [4]; 0.4 under setting [5]. Moreover, the Peak areas is given as 0.0 under setting [6]; 0.0 under setting [7]; 0.3 under setting [8]; 0.0 under setting [9]; 12.8 (Example 2 sample, 0 h); 1.1 (Example 2 sample, 6 h, Donor A). Moreover, the Peak areas by setting is: (Example 2 sample, 6 h, Donor B) 2.0; (Example 2 sample, 6 h, Donor C) 0.4; under setting [10], 0.0; under setting [11], 0.0; under setting [12], 0.0; under setting [13], 0.1. The Peak areas is given as 0.4 under setting [14] and 0.1 under setting [15].
As for `OC[C@H]1O[C@@H](O[C@H]2[C@@H](O)[C@@H](CO)O[C@@H](O[C@H]3C(O)O[C@H](CO)[C@@H](O)[C@@H]3O)[C@@H]2O)[C@H](O)[C@@H](O)[C@H]1O` (stereo partly drawn) [Cpd. ID 30, D-Gal-(β1-3)-D-Gal-(β1-2)-D-Glu], the Peak areas reads like this: (Comp. Ex. 1 sample, 0 h) 2.6; under setting [1], 0.0; under setting [2], 1.3; under setting [3], 0.3; under setting [4], 0.0; under setting [5], 0.5. Besides, the Peak areas runs as follows: under setting [6], 0.0; under setting [7], 0.0; under setting [8], 0.6; under setting [9], 0.0; (Example 2 sample, 0 h) 12.6; (Example 2 sample, 6 h, Donor A) 0.0. In addition, the Peak areas runs as follows: (Example 2 sample, 6 h, Donor B) 1.8; (Example 2 sample, 6 h, Donor C) 0.9; under setting [10], 0.0; under setting [11], 0.5; under setting [12], 0.0; under setting [13], 0.1. Besides, the Peak areas was 0.0 under setting [14] and 0.2 under setting [15].
On to `OC[C@H]1O[C@@H](O[C@H]2[C@@H](O)[C@@H](CO)O[C@@H](O[C@H]3[C@@H](O)[C@@H](CO)O[C@@H](O[C@H]4[C@H](O)[C@@H](O)C(O)O[C@@H]4CO)[C@@H]3O)[C@@H]2O)[C@H](O)[C@@H](O)[C@H]1O` (stereo partly drawn) [Cpd. ID 31, D-Gal-(β1-3)-D-Gal-(β1-3)-D-Gal-(β1-4)-D-Glu], for which the Peak areas runs as follows: (Comp. Ex. 1 sample, 0 h) 0.8; under setting [1], 0.0; under setting [2], 0.5; under setting [3], 0.3; under setting [4], 0.5; under setting [5], 0.5. For the same molecule, the Peak areas under setting [6] amounted to 0.0; the Peak areas under setting [7] is listed as 0.0; the Peak areas under setting [8] is 0.4; the Peak areas under setting [9] was found to be 0.0; the Peak areas (Example 2 sample, 6 h, Donor A) turned out to be 0.0; the Peak areas (Example 2 sample, 6 h, Donor B) is on record as 2.0. Also, the Peak areas by setting is: (Example 2 sample, 6 h, Donor C) 0.3; under setting [10], 0.2; under setting [11], 0.3; under setting [12], 0.0; under setting [13], 0.0; under setting [14], 0.0. In addition, the Peak areas under setting [15] amounted to 0.0.
As for `O=C[C@H](O)[C@@H](O)[C@@H](O)[C@H](O)CO` [Galactose], the Peak areas (Comp. Ex. 1 sample, 0 h) is 0.5; the Peak areas under setting [1] is 2.4; the Peak areas under setting [2] turned out to be 45.1; the Peak areas under setting [3] is given as 0.7; the Peak areas under setting [4] is 0.0; the Peak areas under setting [5] is given as 0.1. Besides, the Peak areas is given as 0.0 under setting [6]; 0.0 under setting [7]; 0.0 under setting [8]; 0.0 under setting [9]; 1.3 (Example 2 sample, 0 h); 2.1 (Example 2 sample, 6 h, Donor A). The Peak areas is, setting by setting: (Example 2 sample, 6 h, Donor B) 47.3; (Example 2 sample, 6 h, Donor C) 0.8; under setting [10], 0.0; under setting [11], 0.1; under setting [12], 0.0; under setting [13], 0.0. Also, the Peak areas under setting [14] amounted to 0.0 and the Peak areas under setting [15] was found to be 0.0.
In the case of `O=C[C@H](O)[C@@H](O)[C@H](O)[C@H](O)CO` [Glucose], the Peak areas reads like this: (Comp. Ex. 1 sample, 0 h) 19.5; under setting [1], 2.9; under setting [2], 34.1; under setting [3], 0.2; under setting [4], 0.0; under setting [5], 0.1. In addition, the Peak areas is 0.0 under setting [6]; 0.0 under setting [7]; 0.0 under setting [8]; 0.0 under setting [9]; 17.5 (Example 2 sample, 0 h); 2.6 (Example 2 sample, 6 h, Donor A). For the same molecule, the Peak areas by setting is: (Example 2 sample, 6 h, Donor B) 26.9; (Example 2 sample, 6 h, Donor C) 0.3; under setting [10], 0.0; under setting [11], 0.0; under setting [12], 0.0; under setting [13], 0.0. Further, the Peak areas is 0.0 under setting [14] and 0.0 under setting [15].
Take `OC[C@H]1O[C@@H](O[C@H]2[C@H](O)[C@@H](O)C(O)O[C@@H]2CO)[C@H](O)[C@@H](O)[C@H]1O` (some centres unmarked) [Lactose]: the Peak areas was 48.4 (Comp. Ex. 1 sample, 0 h); 0.7 under setting [1]; 1.9 under setting [2]; 0.4 under setting [3]; 0.4 under setting [4]; 0.5 under setting [5]. The Peak areas by setting is: under setting [6], 0.4; under setting [7], 0.3; under setting [8], 0.5; under setting [9], 0.3; (Example 2 sample, 0 h) 30.9; (Example 2 sample, 6 h, Donor A) 0.3. In addition, the Peak areas runs as follows: (Example 2 sample, 6 h, Donor B) 5.3; (Example 2 sample, 6 h, Donor C) 0.6; under setting [10], 0.3; under setting [11], 0.4; under setting [12], 0.4; under setting [13], 0.3. The Peak areas is reported as 0.5 under setting [14] and 0.3 under setting [15].
